This note sets out measurements from patent US9464064B2, “HCV helicase inhibitors and methods of use thereof” (University of Kansas, priority 2011, dated 2016).

Data set [1] in a line: Aqueous solubility (direct UV kinetic). Format: physicochemical. Particulars: kinetic from dmso stock. As for the experimental part:
Solubility analysis was performed using a direct UV kinetic solubility method in a 96-well format. All liquid dispense and transfer steps were performed with the FREEDOM EVO automated liquid handler (Tecan, US). Solubility measurements were performed in an aqueous buffer solution (PRISMA HT, pION Inc.) at pH 5.0, 6.2 and 7.4, in duplicate. Solubility measurements were also performed in 1×PBS pH 7.4, and in MOPS buffer pH 6.5. Samples were incubated at room temperature for a minimum of […] to achieve equilibrium, then filtered to remove any precipitate formed. The concentration of the compounds was measured by UV absorbance (250-498 nm) using the […] M200 (Tecan, US) and compared to the spectra of the precipitation-free reference solutions. Spectroscopically pure 1-Propanol (Sigma) was used as a cosolvent to suppress precipitation in the reference solutions. The solubility of each compound was determined using pSOL Evolution Plus software v3.2 (pION Inc) and was expressed as the concentration (μg/mL) of a solute in a saturated solution. Diclofenac Na (highly soluble) and Dipyridamole (poorly to moderately soluble) were used as standards. Standards and test compound stocks were made in 100% DMSO. […]

In another data set the target is T1, NS3h_2a(JFH1) (Hepatitis C virus genotype 2a, UniProt Q99IB8).
T1 construct: truncated C-terminally His-tagged NS3 proteins lacking the N-terminal protease, called NS3h; His-tag (C); made in house
The data set can be described thus: NS3 intrinsic protein fluorescence titration. Format: binding, hepatitis C virus genotype 2a(JFH1). The settings on record: corrected for inner filter effects. As for the experimental part: Compound effects on NS3 intrinsic protein fluorescence were determined by adding aliquots of each compound (1 μl of a 1 mM solution in DMSO) sequentially to 50, 100, or 200 nM of NS3h_2a(JFH1), or 100 nM scNS4A-NS3 dissolved in 2 ml of 25 mM MOPS pH 7, 1.25 mM MgCl2, 0.01% (v/v) TWEEN 20 and 0.3 mM DTT. The titrations were performed in a stirred, temperature-controlled 1 cm cuvette at 23° C. in a Cary Eclipse Fluorescence Spectrophotometer (Agilent Technologies). Intrinsic protein fluorescence was recorded by exciting the sample at 280 nm and reading emission at 340 nm. Excitation and emission slit widths were set to 5 and 10 nm, respectively. All raw fluorescence data were corrected for sample dilution and inner filter effects using Equation 5: Fc=Fobs(V0+Vi)/V0*10^(Aex+Aem/2) (Equation 5) where Fc is corrected fluorescence, Fobs is observed fluorescence, V0 is initial sample volume, Vi is total volume of titrant added, Aex is the absorbance of the solution at the excitation wavelength (280 nm), and Aem is the absorbance of the solution at the emission wavelength (340 nm). Absorbance was calculated at each point in the titrations from extinction coefficients for each compound in titration buffer, which were calculated at 280 nm and 340 nm using four different compound concentrations. […] Fc=F0−(ΔFmax*[…]/(Kd^n+(C)^n)) (Equation 6) In equation 6, […], F0 is fluorescence in the absence of compound, ΔFmax is the maximum change in fluorescence, n is the Hill coefficient, and C is compound concentration.
To examine the direct interaction of the compounds with NS3, the effect of a select few compound on NS3 intrinsic protein fluorescence was analyzed. This technique has been widely used to monitor the interaction of NS3 with its nucleic acid ligands (Lam, et al. (2004) Nucleic Acids Res. 32:4060-4070; Levin & Patel (2002) J. Biol. Chem. 277:29377-29385; Preugschat, et al. (1996) J. Biol. Chem. 271:24449-24457) and other small molecules (Belon, et al. (2010) supra). […] Of note is the fact that, unlike compounds that simply compete for the nucleic acid binding site (e.g., (BIP)2B; Belon, et al. (2010) supra), the primuline derivatives bound NS3h cooperatively as evident from their sigmoid binding isotherms and Hill coefficients greater than one (Equation 6). When compounds were tested against scNS4A-NS3, binding again was detected and apparent affinity for the full-length complex was about 5 times higher than it was for NS3h.

A further data set has as its target MBHA DNA substrate. Nature of the data set: Fluorescent intercalation displacement (FID) assay, ethidium bromide. It counts as binding. The settings on record: FID; mean ± SD; read-out: DNA Binding (Ethidium Bromide) EC50. As for the experimental part: Fluorescent intercalation displacement (FID) assays (Boger, et al. (2001) J. Am. Chem. Soc. 123:5878-5891) were used to measure the ability of a compound to bind the MBHA substrate. The concentration at which half the ethidium bromide is displaced (EC50) was determined using the different conditions as above to more closely mimic the conditions of a standard helicase assay. Each 100 μL reaction contained 25 mM MOPS pH 6.5, 0.16 μM MBHA DNA substrate (lacking Cy5 and IBQ-RQ modifications), 2 μM ethidium bromide, and various concentrations of test compound. Fluorescence of ethidium bromide was monitored using excitation and emission wavelengths of 545 and 595 nm, respectively, on a Cary Eclipse fluorescence spectrophotometer in white 96-well plates. The amount of ethidium bromide-DNA complex fluorescence was used to estimate the ability of compounds to bind DNA, and therefore displace the fluorescent intercalator (ethidium bromide).
In Equation 4, Fc is the fluorescence in the presence of the compound, F(−) is the average DMSO-only negative controls, and F(+) is the average positive controls (100 μM berenil). EC50 values were from a normalized dose-response curve.
These twelve hits were then subjected to a counterscreen designed to independently identify DNA binding compounds using a modified fluorescent intercalator displacement (FID) assay (Boger, et al. (2001) supra). The FID assay used ethidium bromide to judge a compound's ability to bind DNA and was based on the assumption that a DNA binding compound would displace a fluorescent DNA intercalating agent, leading to an observable decrease in observed fluorescence. Compounds were tested at 1.5 μM in the presence of the 25 base pair substrate used in the helicase assays.

Where [2] appears, read: aqueous with cosolvent or surfactant or cyclodextrin, mock assay matrix (MOPS, TWEEN 20, 5% DMSO) at pH 6.5, read-out: solubility.

Read-outs that look alike come from different tables or passages of the source.

T1 sequence (Q99IB8 1196-1661): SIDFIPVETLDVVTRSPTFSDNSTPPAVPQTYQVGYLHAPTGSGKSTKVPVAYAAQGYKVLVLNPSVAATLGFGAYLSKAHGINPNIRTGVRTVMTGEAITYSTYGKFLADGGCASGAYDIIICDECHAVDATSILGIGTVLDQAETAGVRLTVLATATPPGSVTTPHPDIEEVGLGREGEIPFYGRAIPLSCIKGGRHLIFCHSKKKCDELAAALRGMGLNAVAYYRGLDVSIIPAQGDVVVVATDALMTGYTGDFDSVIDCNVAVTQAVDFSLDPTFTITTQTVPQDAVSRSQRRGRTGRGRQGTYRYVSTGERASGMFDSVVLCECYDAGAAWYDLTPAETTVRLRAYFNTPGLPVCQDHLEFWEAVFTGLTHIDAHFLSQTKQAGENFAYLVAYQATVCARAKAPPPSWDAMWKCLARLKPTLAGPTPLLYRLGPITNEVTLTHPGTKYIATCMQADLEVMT

Take `Cc1ccc2nc(-c3ccc4nc(-c5ccc(NC(=O)c6ccc(F)cc6)cc5)sc4c3)sc2c1S(=O)(=O)O.N` [Compound 7, 2′-(4-(4-fluorobenzamido)phenyl)-6-methyl-[2, bibenzo[d]thiazole]-7-sulfonic acid]: in data set [1] (setting [2]), the solubility was 129 µM.

As to `Cc1ccc2nc(-c3ccc4nc(-c5ccc(NC(=O)c6ccc(C(F)(F)F)cc6)cc5)sc4c3)sc2c1S(=O)(=O)O` [Compound 12, 6-methyl-2′-(4-(4-(trifluoromethyl)benzamido)phenyl)-[2,6′-bibenzo[d]thiazole]-7-sulfonic acid], the “interaction with NS3 (intrinsic protein fluorescence)” value (“interaction with NS3” for short) on NS3h_2a(JFH1) is on record as “clear interaction”.

For `Cc1ccc2nc(-c3ccc4nc(-c5ccc(NC(=O)c6cccc(Cl)c6)cc5)sc4c3)sc2c1S(=O)(=O)O` [Compound 17, 2′-(4-(3-chlorobenzamido)phenyl)-6-methyl-[2,6′-bibenzo[d]thiazole]-7-sulfonic acid], the solubility in data set [1] (1×PBS, pH 7.4, aqueous buffer, read-out: Aqueous Solubility, PBS) was 0.12 µg/mL; in data set [1] (PRISMA HT aqueous buffer, aqueous buffer, pH 5.0, read-out: Aqueous Solubility, Prisma HT buffer), 36.7 µg/mL; in data set [1] (PRISMA HT aqueous buffer, pH 6.2, aqueous buffer, read-out: Aqueous Solubility, Prisma HT buffer), more than 60 µg/mL; in data set [1] (PRISMA HT aqueous buffer, pH 7.4, aqueous buffer, read-out: Aqueous Solubility, Prisma HT buffer), more than 60 µg/mL; in data set [1] (setting [2]) it was 29.2 µM; in data set [1] (mock assay matrix with TWEEN 20, 5% DMSO, pH 6.5, aqueous with cosolvent or surfactant or cyclodextrin, read-out: Aqueous Solubility, Assay Matrix), 17.8 µg/mL. Besides, the “interaction with NS3” value on NS3h_2a(JFH1) was “clear interaction”.

As to `Cc1ccc2nc(-c3ccc4nc(-c5ccc(NC(=O)c6ccc(Cl)c(Cl)c6)cc5)sc4c3)sc2c1S(=O)(=O)O` [Compound 18, 2′-(4-(3,4-dichlorobenzamido)phenyl)-6-methyl-[2,6′-bibenzo[d]thiazole]-7-sulfonic acid], the solubility in data set [1] (setting [2]) stood at 2.6 µM.

Consider `Cc1ccc2nc(-c3ccc4nc(-c5ccc(NC(=O)c6cc(C(F)(F)F)cc(C(F)(F)F)c6)cc5)sc4c3)sc2c1S(=O)(=O)O` [Compound 24, 2′-(4-(3,5-bis(trifluoromethyl)benzamido)phenyl)-6-methyl-[2,6′-bibenzo[d]thiazole]-7-sulfonic acid], for which the solubility in data set [1] (setting [2]) was found to be 180 µM. At NS3h_2a(JFH1), the “interaction with NS3” value was “clear interaction”.

As for `Cc1ccc2nc(-c3ccc4nc(-c5ccc(NC(=O)c6cccnc6)cc5)sc4c3)sc2c1S(=O)(=O)O` [Compound 31, 6-methyl-2′-(4-(nicotinamido)phenyl)-[2,6′-bibenzo[d]thiazole]-7-sulfonic acid], the solubility in data set [1] (aqueous buffer, MOPS buffer (25 mM MOPS, 1.25 mM MgCl2, 2% DMSO) at pH 6.5, read-out: solubility) is more than 100 µM.

Regarding `Cc1ccc2nc(-c3ccc4nc(-c5ccc(NC(=O)c6ccc7ccccc7c6)cc5)sc4c3)sc2c1S(=O)(=O)O` [Compound 33, 2′-(4-(2-naphthamido)phenyl)-6-methyl-[2,6′-bibenzo[d]thiazole]-7-sulfonic acid], the solubility in data set [1] (setting [2]) came to 3.7 µM. The “interaction with NS3” value at NS3h_2a(JFH1) is reported as “clear interaction”.

Turning to `Cc1ccc2nc(-c3ccc4nc(-c5ccc(N)cc5)sc4c3)sc2c1S(=O)(=O)O` [Compound P2a, 2′-(4-aminophenyl)-6-methyl-[2,6′-bibenzo[d]thiazole]-7-sulfonic acid], at MBHA DNA substrate, the EC50 is more than 100 µM.

In the case of `Cc1ccc2nc(-c3ccc4nc(-c5ccc6nc(-c7ccc(N)cc7)sc6c5)sc4c3)sc2c1S(=O)(=O)O` [Compound P3, 2″-(4-aminophenyl)-6-methyl-[2,6′:2′,6″-terbenzo[d]thiazole]-7-sulfonic acid], the EC50 at MBHA DNA substrate worked out at 55 ± 20 µM.

For the compound `Cc1ccc2nc(-c3ccc4nc(-c5ccc6nc(-c7ccc8nc(-c9ccc(N)cc9)sc8c7)sc6c5)sc4c3)sc2c1S(=O)(=O)O` [Compound P4, 2′″-(4-aminophenyl)-6-methyl-[2,6′:2″,6′″-quaterbenzo[d]thiazole]-7-sulfonic acid], the EC50 on MBHA DNA substrate was 15 ± 3 µM.

Broadly, the solubility is the concentration that dissolves in the medium under given conditions. A word on the EC50: it is the concentration needed to bring the measured effect to its halfway point.
